From US12528802B2, “Heterocyclic compound” (Takeda Pharmaceutical Company Limited, priority 2019, dated 2026)

These compounds were tested against T1, glucosylceramide synthase (Homo sapiens, UniProt Q16739) (assay: Glucosylceramide synthase (GCS) enzyme assay, microsome fraction, C8 glucosylceramide quantified by Rapidfire MS/MS). Details: test compound 10 μM; 1.7 μM UDP-glucose, 3 μM C8 ceramide; room temperature 60 min.
T1 construct: made in house; host or cells: Expi293F cells (transient expression, pcDNA3.3-TOPO vector); microsome fraction used as enzyme source
T1 sequence (Q16739 1-394): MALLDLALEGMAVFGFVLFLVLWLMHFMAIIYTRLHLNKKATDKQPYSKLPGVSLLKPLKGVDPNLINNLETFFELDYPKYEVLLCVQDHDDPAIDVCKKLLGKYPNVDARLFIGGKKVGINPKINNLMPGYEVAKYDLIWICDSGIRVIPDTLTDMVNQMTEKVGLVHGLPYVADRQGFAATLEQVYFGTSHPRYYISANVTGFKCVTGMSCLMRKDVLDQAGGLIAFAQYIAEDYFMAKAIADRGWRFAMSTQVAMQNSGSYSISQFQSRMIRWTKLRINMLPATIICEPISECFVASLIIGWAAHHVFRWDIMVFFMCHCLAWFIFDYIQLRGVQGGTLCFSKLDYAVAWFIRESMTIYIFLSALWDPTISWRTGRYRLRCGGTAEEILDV
Type: biochemical
Outline: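 Test compound, 10 μM final, was run against human GCS from transfected Expi293F microsome fractions, using substrate solution of 6 μM C8 ceramide (in DOPC liposomes) plus 3.4 μM UDP-glucose, pH 7.5 Tris buffer, 60 min, room temperature. Product C8 glucosylceramide measured by Rapidfire MS/MS against an internal standard, % inhibition referenced to no-enzyme and DMSO wells.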
With `O=C1c2ccnc(-c3ccc(F)cc3OCC(F)(F)F)c2CN1c1ccc(C2(O)CCOC2)cn1` (single isomer, unassigned) [Example 301, (R or S)-4-[4-fluoro-2-(2,2,2-trifluoroethoxy)phenyl]-2-[5-(3-hydroxyoxolan-3-yl)pyridin-2-yl]-2,3-dihydro-1H-pyrrolo [3,4-c]pyridin-1-one] the “GCS enzyme inhibitory rate at 10 μM (%) (% of control)” value was 97%.

Same assay, conditions: test compound 10 μM; 1.7 μM UDP-glucose, 3 μM C8 ceramide; room temperature 60 min; read-out: GCS enzyme inhibitory rate at 10 μM (%) (% of control)
Compound `O=C1c2ccnc(-c3ccccc3OCC(F)(F)F)c2CN1c1cnn(CC2(F)CC2)c1` [Example 248, 2-{1-[(1-fluorocyclopropyl)methyl]-1H-pyrazol-4-yl}-4-[2-(2,2,2-trifluoroethoxy)phenyl]-2,3-dihydro-1H-pyrrolo[3,4-c]pyridin-1-one] has an inhibition at 10 µM of 99%.
Work on `O=C1c2ccnc(-c3ccccc3OC(F)F)c2CN1c1ccc(OC(F)F)cn1` [Example 64, 4-[2-(difluoromethoxy)phenyl]-2-[5-(difluoromethoxy)pyridin-2-yl]-2,3-dihydro-1H-pyrrolo[3,4-c]pyridin-1-one] yielded an inhibition at 10 µM of 96%.
Compound `O=C1c2ccnc(-c3ccc(F)cc3OCC(F)(F)F)c2CN1c1ccc(C2(O)COC2)c(F)c1` [Example 220, 2-[3-fluoro-4-(3-hydroxyoxetan-3-yl)phenyl]-4-[4-fluoro-2-(2,2,2-trifluoroethoxy)phenyl]-2,3-dihydro-1H-pyrrolo[3,4-c]pyridin-1-one] has an inhibition at 10 µM of 89%.
`COc1ccccc1-c1nccc2c1CN(c1ccc(OC(F)F)cn1)C2=O` [Example 39, 2-[5-(difluoromethoxy)pyridin-2-yl]-4-(2-methoxyphenyl)-2,3-dihydro-1H-pyrrolo[3,4-c]pyridin-1-one] gave an inhibition at 10 µM of 93%.
For `Fc1ccc(N2Cc3ccnc(-c4ccc(F)cc4OCC(F)(F)F)c3C2)nc1` [Example 169, 2-(5-fluoropyridin-2-yl)-4-[4-fluoro-2-(2,2,2-trifIuoroethoxy)phenyl]-2,3-dihydro-1H-pyrrolo[3,4-c]pyridine], the inhibition at 10 µM was 95%.
For `CC(C)(O)c1ccc(N2Cc3c(cc(C4CCCOC4)nc3-c3ccccc3OCC(F)(F)F)C2=O)cc1` (racemic) [Example 387, rac-2-[4-(2-hydroxypropan-2-yl)phenyl]-6-(oxan-3-yl)-4-[2-(2,2,2-trifluoroethoxy)phenyl]-2,3-dihydro-1H-pyrrolo[3,4-c]pyridin-1-one], the inhibition at 10 µM was 101%.
`O=C1c2ccnc(-c3ccc(F)cc3OCC(F)(F)F)c2CN1c1ccc(N2CCOCC2)nc1` [Example 177, 4-[4-fluoro-2-(2,2,2-trifluoroethoxy)phenyl]-2-[6-(morpholin-4-yl)pyridin-3-yl]-2,3-dihydro-1H-pyrrolo[3,4-c]pyridin-1-one] showed an inhibition at 10 µM of 98%.
`CC(C)(O)c1ccc(N2Cc3c(ccnc3-c3cc(F)ccc3OCC(F)(F)F)C2=O)cc1` [Example 323, 4-[5-fluoro-2-(2,2,2-trifluoroethoxy)phenyl]-2-[4-(2-hydroxypropan-2-yl)phenyl]-2,3-dihydro-1H-pyrrolo[3,4-c]pyridin-1-one] showed an inhibition at 10 µM of 99%.
`O=C1c2ccnc(-c3ccc(F)cc3OC(F)F)c2CN1c1ccc(OC(F)F)cn1` [Example 53, 4-[2-(difluoromethoxy)-4-fluorophenyl]-2-[5-(difluoromethoxy)pyridin-2-yl]-2,3-dihydro-1H-pyrrolo[3,4-c]pyridin-1-one] gave an inhibition at 10 µM of 67%.
Compound `O=C(c1ccc(-c2nccc3c2CN(c2ccc(OC(F)F)cc2)C3=O)c(OC(F)F)c1)N1CCC1` [Example 124, 4-[4-(azetidine-1-carbonyl)-2-(difluoromethoxy)phenyl]-2-[4-(difluoromethoxy)phenyl]-2,3-dihydro-1H-pyrrolo[3,4-c]pyridin-1-one] has an inhibition at 10 µM of 98%.
Work on `CS(=O)(=O)c1ccc(N2Cc3c(ccnc3-c3ccccc3OCC(F)(F)F)C2=O)cc1` [Example 161, 2-[4-(methanesulfonyl)phenyl]-4-[2-(2,2,2-trifluoroethoxy)phenyl]-2,3-dihydro-1H-pyrrolo[3,4-c]pyridin-1-one] yielded an inhibition at 10 µM of 98%.
`O=C1c2ccnc(-c3ccncc3OCC(F)(F)F)c2CN1c1ccc(OC(F)F)nc1` [Example 105, 2-[6-(difluoromethoxy)pyridin-3-yl]-4-[3-(2,2,2-trifluoroethoxy)pyridin-4-yl]-2,3-dihydro-1H-pyrrolo[3,4-c]pyridin-1-one] showed an inhibition at 10 µM of 96%.
Work on `O=C1c2ccnc(-c3ccccc3OCC(F)(F)F)c2CN1c1ccc(F)cn1` [Example 51, 2-(5-fluoropyridin-2-yl)-4-[2-(2,2,2-trifluoroethoxy)phenyl]-2,3-dihydro-1H-pyrrolo[3,4-c]pyridin-1-one] yielded an inhibition at 10 µM of 99%.
`CC(C)(O)Cc1ccc(N2Cc3c(ccnc3-c3ccncc3OCC(F)(F)F)C2=O)cc1` [Example 307, 2-[4-(2-hydroxy-2-methylpropyl)phenyl]-4-[3-(2,2,2-trifluoroethoxy)pyridin-4-yl]-2,3-dihydro-1H-pyrrolo [3,4-c]pyridin-1-one] gave an inhibition at 10 µM of 91%.
With `O=C1c2ncnc(-c3ccc(F)cc3OCC(F)(F)F)c2CN1c1ccc(F)cc1` [Example 185, 6-(4-fluorophenyl)-4-[4-fluoro-2-(2,2,2-trifluoroethoxy)phenyl]-5,6-dihydro-7H-pyrrolo[3,4-d]pyrimidin-7-one] the inhibition at 10 µM was 71%.
For `CN(C)C(=O)c1ccc(N2Cc3cnn(-c4ccc(F)cc4OCC(F)(F)F)c3C2)nc1` [Example 231, 6-{1-[4-fluoro-2-(2,2,2-trifluoroethoxy)phenyl]-4,6-dihydropyrrolo[3,4-c]pyrazol-5(1H)-yl}-N,N-dimethylpyridine-3-carboxamide], the inhibition at 10 µM was 61%.
Compound `O=C1c2ccnc(-c3ccc(F)cc3OCC(F)F)c2CN1c1ccc(F)cc1` [Example 16, 4-[2-(2,2-difluoroethoxy)-4-fluorophenyl]-2-(4-fluorophenyl)-2,3-dihydro-1H-pyrrolo[3,4-c]pyridin-1-one] has an inhibition at 10 µM of 73%.
With `Cc1cc(N2Cc3c(ccnc3-c3ccc(F)cc3OCC(F)(F)F)C2=O)nn1C` [Example 82, 2-(1,5-dimethyl-1H-pyrazol-3-yl)-4-[4-fluoro-2-(2,2,2-trifluoroethoxy)phenyl]-2,3-dihydro-1H-pyrrolo[3,4-c]pyridin-1-one] the inhibition at 10 µM was 88%.
`COCCn1cc(N2Cc3c(ccnc3-c3ccc(F)cc3OCC(F)(F)F)C2=O)cn1` [Example 154, 4-[4-fluoro-2-(2,2,2-trifluoroethoxy)phenyl]-2-[1-(2-methoxyethyl)-1H-pyrazol-4-yl]-2,3-dihydro-1H-pyrrolo[3,4-c]pyridin-1-one] showed an inhibition at 10 µM of 85%.
For `CC(C)(O)COc1ccc(N2Cc3c(ccnc3-c3ccc(F)cc3OCC(F)(F)F)C2=O)cc1` [Example 254, 4-[4-fluoro-2-(2,2,2-trifluoroethoxy)phenyl]-2-[4-(2-hydroxy-2-methylpropoxy)phenyl]-2,3-dihydro-1H-pyrrolo[3,4-c]pyridin-1-one], the inhibition at 10 µM was 99%.
`O=C1c2ccnc(-c3ccc(F)cc3OCC(F)(F)F)c2CN1c1ccc(C(O)C(F)(F)F)c(F)c1` (racemic) [Example 293, rac-4-[4-fluoro-2-(2,2,2-trifluoroethoxy)phenyl]-2-[3-fluoro-4-(2,2,2-trifluoro-1-hydroxyethyl)phenyl]-2,3-dihydro-1H-pyrrolo [3,4-c]pyridin-1-one] showed an inhibition at 10 µM of 88%.
Work on `O=C1c2ccnc(-c3ccc(F)cc3OCC(F)(F)F)c2CN1c1ccc(C(O)C(F)F)cc1` (racemic) [Example 250, rac-2-[4-(2,2-difluoro-1-hydroxyethyl)phenyl]-4-[4-fluoro-2-(2,2,2-trifluoroethoxy)phenyl]-2,3-dihydro-1H-pyrrolo[3,4-c]pyridin-1-one] yielded an inhibition at 10 µM of 99%.
With `O=C1c2ccnc(-c3ccc(F)cc3OCC(F)(F)F)c2CN1c1ccc(C2(F)COC2)cc1` [Example 226, 2-[4-(3-fluorooxetan-3-yl)phenyl]-4-[4-fluoro-2-(2,2,2-trifluoroethoxy)phenyl]-2,3-dihydro-1H-pyrrolo[3,4-c]pyridin-1-one] the inhibition at 10 µM was 96%.
With `N#Cc1ccc(N2Cc3c(ccnc3-c3ccccc3OCC(F)(F)F)C2=O)cc1` [Example 68, 4-{1-oxo-4-[2-(2,2,2-trifluoroethoxy)phenyl]-1,3-dihydro-2H-pyrrolo[3,4-c]pyridin-2-yl}benzonitrile] the inhibition at 10 µM was 87%.
`CC(C)(O)c1ccc(N2Cc3c(cc(Br)c(=O)n3-c3ccccc3OCC(F)(F)F)C2=O)cc1` [Example 336, 3-bromo-6-[4-(2-hydroxypropan-2-yl)phenyl]-1-[2-(2,2,2-trifluoroethoxy)phenyl]-6,7-dihydro-1H-pyrrolo[3,4-b]pyridine-2,5-dione] gave an inhibition at 10 µM of 98%.
`O=C1c2ccnc(-c3ccccc3OCC(F)(F)F)c2CN1c1ccc(C(O)(C(F)F)C(F)F)cc1` [Example 246, 2-[4-(1,1,3,3-tetrafluoro-2-hydroxypropan-2-yl)phenyl]-4-[2-(2,2,2-trifluoroethoxy)phenyl]-2,3-dihydro-1H-pyrrolo[3,4-c]pyridin-1-one] showed an inhibition at 10 µM of 100%.
With `CC(C)(O)c1cc2c(c(-c3ccccc3OCC(F)(F)F)n1)CN(c1ccc(OCC(F)(F)F)cc1)C2=O` [Example 343, 6-(2-hydroxypropan-2-yl)-4-[2-(2,2,2-trifluoroethoxy)phenyl]-2-[4-(2,2,2-trifluoroethoxy)phenyl]-2,3-dihydro-1H-pyrrolo[3,4-c]pyridin-1-one] the inhibition at 10 µM was 100%.
